From ChEMBL document CHEMBL4334494, “Recent advances in the targeting of human DNA ligase I as a potential new strategy for cancer treatment” (Eur J Med Chem, 2019)

Columns and labels:
DNA ligase 1 [1] = molecular target: T1, DNA ligase 1 (Homo sapiens, UniProt P18858); assay: Inhibition of human DNA ligase 1 expressed in Escherichia coli BL21 (DE3) cells using nicked DNA as substrate preincubated for 30 mins followed by substrate addition measured after 1 hr
DNA ligase 1 [2] = molecular target: T1, DNA ligase 1; assay: Inhibition of human DNA ligase 1 using 52-mer DNA/25-mer DNA/27-mer DNA as substrate
DLD-1 = assay: Antiproliferative activity against human DLD1 cells after 48 hrs by MTT assay; assay type: functional, cell-based; settings: DLD-1, 48 h
HepG2 = assay: Antiproliferative activity against human HepG2 cells after 48 hrs by MTT assay; assay type: functional, cell-based; settings: HepG2, 48 h
MDA-MB-231 [3] = assay: Antiproliferative activity against human MDA-MB-231 cells after 48 hrs by MTT assay; assay type: functional, cell-based; settings: MDA-MB-231, 48 h
DNA ligase 1 [4] = molecular target: T1, DNA ligase 1; assay: Inhibition of human DNA ligase 1 expressed in Escherichia coli BL21DE3RP cells at 50 uM using 52-mer DNA/25-mer DNA/27-mer DNA as substrate after 30 mins by Cyanin3 dye-based fluorescence assay relative to control
HCT-116 [5] = assay: Antiproliferative activity against human HCT116 cells after 48 hrs by MTT assay; assay type: functional, cell-based; settings: HCT-116, 48 h
HT-29 = assay: Antiproliferative activity against human HT-29 cells after 48 hrs by MTT assay; assay type: functional, cell-based; settings: HT-29, 48 h
HeLa = assay: Antiproliferative activity against human HeLa cells after 48 hrs by MTT assay; assay type: functional, cell-based
4T1 = assay: Antiproliferative activity against mouse 4T1 cells after 48 hrs by MTT assay; assay type: functional, cell-based; settings: 4T1, 48 h
DNA ligase 1 [6] = molecular target: T1, DNA ligase 1; assay: Inhibition of human DNA ligase 1 at 100 uM using nicked DNA as substrate by high-throughput fluorescence energy transfer-based DNA joining assay relative to control
HCT-116 [7] = assay: Antiproliferative activity against human HCT116 cells relative to control; assay type: functional
DNA ligase 1 [8] = molecular target: T1, DNA ligase 1; assay: Uncompetitive inhibition of human DNA ligase 1 using nicked DNA as substrate by high-throughput fluorescence energy transfer-based DNA joining assay
MDA-MB-231 [9] = assay: Antiproliferative activity against human MDA-MB-231 cells at 10 uM after 48 hrs by MTT assay relative to control; assay type: functional; settings: MDA-MB-231, 48 h
DNA ligase 1 [10] = molecular target: T1, DNA ligase 1; assay: Inhibition of human DNA ligase 1 at 25 uM using nicked DNA as substrate after 30 mins relative to control
DNA ligase 1 [11] = molecular target: T1, DNA ligase 1; assay: Inhibition of human DNA ligase 1
DNA ligase 1 [12] = molecular target: T1, DNA ligase 1; assay: Inhibition of human DNA ligase 1 using nicked DNA as substrate after 30 mins relative to control
DNA ligase 1 [13] = molecular target: T1, DNA ligase 1; assay: Competitive inhibition of human DNA ligase 1 using nicked DNA as substrate by high-throughput fluorescence energy transfer-based DNA joining assay
DNA ligase 3 = molecular target: T2, DNA ligase 3 (Homo sapiens, UniProt P49916); assay: Competitive inhibition of human DNA ligase 3 using nicked DNA as substrate by high-throughput fluorescence energy transfer-based DNA joining assay
T2 sequence (P49916 whole entry): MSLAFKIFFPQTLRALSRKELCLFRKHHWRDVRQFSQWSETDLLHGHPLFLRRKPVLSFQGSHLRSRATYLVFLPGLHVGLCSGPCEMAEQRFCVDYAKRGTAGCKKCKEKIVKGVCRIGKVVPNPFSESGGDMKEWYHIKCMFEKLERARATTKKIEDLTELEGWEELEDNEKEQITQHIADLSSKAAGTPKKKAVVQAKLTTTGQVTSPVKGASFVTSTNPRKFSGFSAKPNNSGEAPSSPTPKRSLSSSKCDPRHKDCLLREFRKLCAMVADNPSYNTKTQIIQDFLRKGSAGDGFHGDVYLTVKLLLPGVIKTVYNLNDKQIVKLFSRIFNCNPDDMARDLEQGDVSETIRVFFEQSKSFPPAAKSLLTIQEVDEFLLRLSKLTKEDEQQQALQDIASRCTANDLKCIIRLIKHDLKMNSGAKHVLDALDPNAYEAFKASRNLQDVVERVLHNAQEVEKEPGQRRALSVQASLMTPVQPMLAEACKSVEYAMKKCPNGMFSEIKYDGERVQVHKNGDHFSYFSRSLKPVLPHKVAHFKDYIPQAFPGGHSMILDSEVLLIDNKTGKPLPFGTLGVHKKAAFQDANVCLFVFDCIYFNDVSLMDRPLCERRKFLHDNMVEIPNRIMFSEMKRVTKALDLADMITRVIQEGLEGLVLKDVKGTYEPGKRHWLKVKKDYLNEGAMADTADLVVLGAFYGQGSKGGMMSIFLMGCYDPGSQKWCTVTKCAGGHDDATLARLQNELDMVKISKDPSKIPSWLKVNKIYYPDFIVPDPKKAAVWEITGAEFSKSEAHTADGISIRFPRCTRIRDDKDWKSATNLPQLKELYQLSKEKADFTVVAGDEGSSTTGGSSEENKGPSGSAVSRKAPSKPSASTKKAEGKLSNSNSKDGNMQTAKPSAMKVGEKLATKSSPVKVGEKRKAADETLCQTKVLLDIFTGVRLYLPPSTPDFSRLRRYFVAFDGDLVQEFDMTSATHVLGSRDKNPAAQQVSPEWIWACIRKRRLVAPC

DNA ligase 1 [14] = molecular target: T1, DNA ligase 1; assay: Inhibition of human DNA ligase 1 at 50 uM using 52-mer DNA/25-mer DNA/27-mer DNA as substrate by fluorescence assay relative to control
HEK293 = assay: Cytotoxicity against HEK293 cells after 48 hrs by MTT assay; assay type: cell-based; settings: Homo sapiens, HEK293, 48 h
[15] = Antiproliferative activity against human 46BR.1G1 cells after 48 hrs by MTT assay; assay type: functional, cell-based
DNA ligase 4 = molecular target: T3, DNA ligase 4 (Homo sapiens, UniProt P49917); assay: Competitive inhibition of human DNA ligase 4 using nicked DNA as substrate by high-throughput fluorescence energy transfer-based DNA joining assay
T3 sequence (P49917 whole entry): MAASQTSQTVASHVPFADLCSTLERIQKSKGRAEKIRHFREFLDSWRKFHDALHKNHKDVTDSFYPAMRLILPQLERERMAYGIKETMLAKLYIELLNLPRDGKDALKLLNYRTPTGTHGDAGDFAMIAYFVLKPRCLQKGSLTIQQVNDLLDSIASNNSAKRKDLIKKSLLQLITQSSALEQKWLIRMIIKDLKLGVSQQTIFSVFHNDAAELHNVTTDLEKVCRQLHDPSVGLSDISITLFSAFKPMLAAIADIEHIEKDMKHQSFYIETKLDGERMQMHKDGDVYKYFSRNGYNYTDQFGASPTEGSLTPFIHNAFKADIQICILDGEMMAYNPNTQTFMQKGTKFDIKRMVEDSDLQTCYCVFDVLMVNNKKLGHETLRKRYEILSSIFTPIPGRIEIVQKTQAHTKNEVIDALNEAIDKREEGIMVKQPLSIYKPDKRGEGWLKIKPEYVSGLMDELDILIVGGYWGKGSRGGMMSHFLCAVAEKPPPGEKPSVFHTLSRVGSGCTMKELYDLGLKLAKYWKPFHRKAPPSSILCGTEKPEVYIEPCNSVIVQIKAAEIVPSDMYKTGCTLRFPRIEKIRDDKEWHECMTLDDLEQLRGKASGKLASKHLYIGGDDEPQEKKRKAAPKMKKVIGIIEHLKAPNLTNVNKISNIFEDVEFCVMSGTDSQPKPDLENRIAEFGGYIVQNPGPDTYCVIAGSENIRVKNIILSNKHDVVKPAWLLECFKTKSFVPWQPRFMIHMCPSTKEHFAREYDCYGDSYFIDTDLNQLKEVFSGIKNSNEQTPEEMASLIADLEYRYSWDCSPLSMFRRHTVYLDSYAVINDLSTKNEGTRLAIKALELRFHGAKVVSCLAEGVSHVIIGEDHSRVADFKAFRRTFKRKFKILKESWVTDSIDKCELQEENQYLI

T1 sequence (P18858 whole entry): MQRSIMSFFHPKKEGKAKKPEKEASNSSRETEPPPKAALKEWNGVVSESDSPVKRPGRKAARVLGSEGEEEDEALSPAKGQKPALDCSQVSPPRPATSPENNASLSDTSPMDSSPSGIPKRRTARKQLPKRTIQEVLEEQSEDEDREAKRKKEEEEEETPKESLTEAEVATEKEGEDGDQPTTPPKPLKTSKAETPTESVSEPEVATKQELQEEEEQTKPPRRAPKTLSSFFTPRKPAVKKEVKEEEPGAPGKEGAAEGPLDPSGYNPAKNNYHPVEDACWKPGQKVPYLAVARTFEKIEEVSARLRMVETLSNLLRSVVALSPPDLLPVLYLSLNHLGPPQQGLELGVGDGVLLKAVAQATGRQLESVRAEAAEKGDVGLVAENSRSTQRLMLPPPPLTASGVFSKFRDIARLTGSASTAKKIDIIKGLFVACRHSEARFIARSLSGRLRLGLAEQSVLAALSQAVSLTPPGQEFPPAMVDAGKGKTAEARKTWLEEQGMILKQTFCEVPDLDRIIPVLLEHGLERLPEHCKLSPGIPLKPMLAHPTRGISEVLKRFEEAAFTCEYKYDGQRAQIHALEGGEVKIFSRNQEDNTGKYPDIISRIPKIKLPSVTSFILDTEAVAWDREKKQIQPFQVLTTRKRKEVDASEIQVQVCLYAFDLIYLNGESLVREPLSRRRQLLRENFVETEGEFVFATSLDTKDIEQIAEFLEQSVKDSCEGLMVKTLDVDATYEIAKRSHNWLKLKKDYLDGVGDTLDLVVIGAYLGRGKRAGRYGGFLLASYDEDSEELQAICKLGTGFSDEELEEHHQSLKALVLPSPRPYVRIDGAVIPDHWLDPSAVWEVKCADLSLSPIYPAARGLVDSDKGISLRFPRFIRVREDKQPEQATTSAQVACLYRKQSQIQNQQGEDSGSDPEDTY

O=C1/C(=N\Nc2cn[nH]c(=O)c2Cl)c2cc(Cl)ccc2N1c1ccc(Cl)cc1
IC50 (DNA ligase 1 [1]): 14.1 µM

O=C1c2cc(Cl)ccc2NC(c2ccc(Br)cc2)c2cccn21 (centres undefined)
IC50 (DNA ligase 1 [2]): 23.1 µM

Cc1ccc(/C=C2\CN(C(=S)NCCc3ccccc3)C/C(=C\c3ccc(C)cc3)C2=O)cc1
IC50 (DLD-1): < 10 µM | IC50 (HepG2): < 10 µM | IC50 (MDA-MB-231 [3]): < 10 µM | inhibition (DNA ligase 1 [4]): > 75% | IC50 (HCT-116 [5]): < 10 µM | IC50 (HT-29): < 10 µM | IC50 (HeLa): < 10 µM | IC50 (4T1): < 10 µM

O=C1Nc2ccc(Cl)cc2/C1=N/Nc1cn[nH]c(=O)c1Cl
IC50 (DNA ligase 1 [1]): 14.1 µM

O=c1[nH]ncc(N/N=C/c2ccc(O)c([N+](=O)[O-])c2)c1Cl
inhibition (DNA ligase 1 [6]): 59.8% | Activity (HCT-116 [7]): 70% | IC50 (DNA ligase 1 [8]): 12 µM

O=C1Nc2ccccc2/C1=N/Nc1cn[nH]c(=O)c1Cl
IC50 (DNA ligase 1 [1]): 13.9 µM

O=C1/C(=N\Nc2cn[nH]c(=O)c2Cl)c2cc(Br)ccc2N1c1ccc(Cl)cc1
IC50 (DNA ligase 1 [1]): 15.5 to 18.8 µM

CCCCNC(=S)N1C/C(=C\c2ccc(C)cc2)C(=O)/C(=C/c2ccc(C)cc2)C1
IC50 (DLD-1): < 10 µM | IC50 (HepG2): < 10 µM | IC50 (MDA-MB-231 [3]): < 10 µM | inhibition (DNA ligase 1 [4]): > 75% | IC50 (HCT-116 [5]): < 10 µM | IC50 (HT-29): < 10 µM | IC50 (HeLa): < 10 µM | IC50 (4T1): < 10 µM

O=C1/C(=N\Nc2cn[nH]c(=O)c2Cl)c2cc(Cl)ccc2N1c1ccc(F)cc1
IC50 (DNA ligase 1 [1]): 21.1 µM

O=C1/C(=N\Nc2cn[nH]c(=O)c2Cl)c2ccccc2N1c1ccc(Cl)cc1
IC50 (DNA ligase 1 [1]): 26.5 µM

COc1cccc(OC)c1/C=C/c1cc(=O)oc2c1ccc1ccccc12
inhibition at 10 µM (MDA-MB-231 [9]): > 50% | inhibition (DNA ligase 1 [10]): < 50%

Cc1ccc(N2C(=O)/C(=N\Nc3cn[nH]c(=O)c3Cl)c3ccccc32)cc1
IC50 (DNA ligase 1 [1]): 14.1 µM

O=C1c2cc(Cl)ccc2NC(c2ccc(Cl)c(Cl)c2)c2cccn21 (centres undefined)
IC50 (DNA ligase 1 [2]): 15.8 µM

N[C@H](CO)Cc1cc(I)c(Oc2ccc(O)cc2)c(I)c1
IC50 (DNA ligase 1 [11]): 1 µM

COc1ccc(-c2cnc3c(O)nc(O)nc3n2)cc1
Activity (HCT-116 [7]): 70%

COc1cc(/C=C/c2cc(=O)oc3c2ccc2ccccc23)cc(OC)c1
inhibition at 10 µM (MDA-MB-231 [9]): > 50% | IC50 (MDA-MB-231 [3]): 12.8 µM | IC50 (4T1): 11.6 µM | inhibition (DNA ligase 1 [12]): 99.3% | inhibition (DNA ligase 1 [10]): < 50%

Cc1c(Br)cc(NCC(=O)N/N=C/c2cc([N+](=O)[O-])ccc2O)cc1Br
inhibition (DNA ligase 1 [6]): 78.3% | Activity (HCT-116 [7]): 70% | IC50 (DNA ligase 1 [13]): 10 µM | IC50 (DNA ligase 3): 10 µM

CCCCNC(=S)N1C/C(=C\c2ccccc2F)C(=O)/C(=C/c2ccccc2F)C1
IC50 (DLD-1): < 10 µM | IC50 (HepG2): < 10 µM | IC50 (MDA-MB-231 [3]): < 10 µM | inhibition (DNA ligase 1 [4]): > 75% | IC50 (HCT-116 [5]): < 10 µM | IC50 (HT-29): < 10 µM | IC50 (HeLa): < 10 µM | IC50 (4T1): < 10 µM

O=[N+]([O-])c1ccc(N/N=C(/c2ccc(O)cc2)c2cccc3ccccc23)c([N+](=O)[O-])c1
inhibition (DNA ligase 1 [14]): 93.1% | IC50 (DLD-1): 6.78 µM | IC50 (HepG2): 6.93 µM | IC50 (MDA-MB-231 [3]): 7.02 µM | IC50 (HEK293): 12.6 µM | IC50 [15]: > 25 µM

CCCCNC(=S)N1C/C(=C\c2ccccc2C)C(=O)/C(=C/c2ccccc2C)C1
IC50 (DLD-1): < 10 µM | IC50 (HepG2): < 10 µM | IC50 (MDA-MB-231 [3]): < 10 µM | inhibition (DNA ligase 1 [4]): > 75% | IC50 (HCT-116 [5]): < 10 µM | IC50 (HT-29): < 10 µM | IC50 (HeLa): < 10 µM | IC50 (4T1): < 10 µM

Nc1nc(S)nc(O)c1/N=C/c1ccccc1
inhibition (DNA ligase 1 [6]): 68.8% | Activity (HCT-116 [7]): 70% | IC50 (DNA ligase 1 [13]): 5 µM | IC50 (DNA ligase 3): 9 µM | IC50 (DNA ligase 4): 5 µM

O=C1/C(=N\Nc2cn[nH]c(=O)c2Cl)c2cc(Br)ccc2N1c1ccccc1
IC50 (DNA ligase 1 [1]): 36.4 µM

Cc1ccc(/C=C2\CN(C(=S)NC(=O)c3ccccc3)C/C(=C\c3ccc(C)cc3)C2=O)cc1
IC50 (DLD-1): < 10 µM | IC50 (HepG2): < 10 µM | IC50 (MDA-MB-231 [3]): < 10 µM | inhibition (DNA ligase 1 [4]): > 75% | IC50 (HCT-116 [5]): < 10 µM | IC50 (HT-29): < 10 µM | IC50 (HeLa): < 10 µM | IC50 (4T1): < 10 µM

COc1cc(/C=C/c2cc(=O)oc3c2ccc2c(OC)cccc23)cc(OC)c1
inhibition at 10 µM (MDA-MB-231 [9]): > 50% | inhibition (DNA ligase 1 [10]): < 50%
